Experimental data: patent US9346811B2, “6,7-dihydro-pyrazolo[1,5-a]pyrazin-4-ylamine derivatives useful as inhibitors of beta-secretase (BACE)” (JANSSEN PHARMACEUTICA NV, priority 2011, dated 2016)
Where a name gives a salt, the structure may show the parent alone. Read-outs that look alike come from different tables or passages of the source.

How the values were obtained:
[1] = tested on: Aβ42 produced and secreted into the medium of human neuroblastoma SKNBE2 cells; test: Cellular αlisa assay in SKNBE2 cells, Aβ42; assay type: cell-based; conditions: for IC50: Homo sapiens, SKNBE2, 18 h, read-out: Cellular αlisa assay in SKNBE2 cells Aβ42 pIC50 (converted)
Experimental: (§1) Cellular αlisa Assay in SKNBE2 Cells
(§2) In two αlisa assays the levels of Aβtotal and Aβ42 produced and secreted into the medium of human neuroblastoma SKNBE2 cells are quantified. The assay is based on the human neuroblastoma SKNBE2 expressing the wild type Amyloid Precursor Protein (hAPP695). The compounds are diluted and added to these cells, incubated for 18 hours and then measurements of Aβ42 and Aβtotal are taken. Aβtotal and Aβ42 are measured by sandwich αlisa. αlisa is a sandwich assay using biotinylated antibody AbN/25 attached to streptavidin coated beads and antibody Ab4G8 or cAb42/26 conjugated acceptor beads for the detection of Aβtotal and Aβ42 respectively. In the presence of Aβtotal or Aβ42, the beads come into close proximity. The excitation of the Donor beads provokes the release of singlet oxygen molecules that triggers a cascade of energy transfer in the Acceptor beads, resulting in light emission. Light emission is measured after 1 hour incubation (excitation at […] and emission at 615 nm).
(§3) A best-fit curve is fitted by a minimum sum of squares method to the plot of % Controlmin versus compound concentration.

[2] = tested on: Aβtotal produced and secreted into the medium of human neuroblastoma SKNBE2 cells; test: Cellular αlisa assay in SKNBE2 cells, Aβtotal; assay type: cell-based; conditions: for IC50: Homo sapiens, SKNBE2, 18 h, read-out: Cellular αlisa assay in SKNBE2 cells Aβtotal pIC50 (converted)
Experimental: as §1, §2, §3

[3] = tested on: brain levels of soluble Aβ42; test: In vivo efficacy: brain Aβ42 lowering (ELISA); set-up: species or system mouse; conditions: 30 mg/kg p.o., 4 h. after administration
Text: (§4) To determine whether acute administration of an Aβ42 peptide lowering agent would reduce Aβ peptide levels in vivo, non-transgenic rodents, e.g. mice or rats were used. Animals treated with the Aβ peptide lowering agent were examined and compared to those untreated or treated with vehicle and brain levels of soluble Aβ42 and total Aβ were quantitated by standard techniques, for example, using ELISA. Treatment periods varied from hours (h) to days and were adjusted based on the results of the Aβ42 lowering once a time course of onset of effect could be established.
(§5) A typical protocol for measuring Aβ42 lowering in vivo is shown but it is only one of many variations that could be used to optimize the levels of detectable Aβ. For example, Aβ peptide lowering compounds were formulated in 20% hydroxypropyl β cyclodextrin. The Aβ peptide lowering agents were administered as a single oral dose (p.o.) or a single subcutaneous dose (s.c.) to overnight fasted animals. After a certain time, usually 2 or 4 h (as indicated in Table 7), the animals were sacrificed and Aβ42 levels were analysed.
(§6) Blood was collected by decapitation and exsanguinations in EDTA-treated collection tubes. Blood was centrifuged at 1900 g for 10 minutes (min) at 4° C. and the plasma recovered and flash frozen for later analysis. The brain was removed from the cranium and hindbrain. The cerebellum was removed and the left and right hemisphere were separated. The left hemisphere was stored at −18° C. for quantitative analysis of test compound levels. The right hemisphere was rinsed with phosphate-buffered saline (PBS) buffer and immediately frozen on dry ice and stored at −80° C. until homogenization for biochemical assays.
(§7) Mouse brains from non-transgenic animals were resuspended in 8 volumes of 0.4% DEA (diethylamine)/50 mM NaCl containing protease inhibitors (Roche-11873580001 or 04693159001) per gram of tissue, e.g. for 0.158 g brain, add 1.264 ml of 0.4% DEA. All samples were homogenized in the FastPrep-24 system (MP Biomedicals) using lysing matrix D (MPBio #6913-100) at 6 m/s for 20 seconds. Homogenates were centrifuged at 221.300×g for 50 min. The resulting high speed supernatants were then transferred to fresh eppendorf tubes. Nine parts of supernatant were neutralized with 1 part 0.5 M Tris-HCl pH 6.8 and used to quantify Aβtotal and Aβ42.
(§8) To quantify the amount of Aβtotal and Aβ42 in the soluble fraction of the brain homogenates, Enzyme-Linked-Immunosorbent-Assays were used. Briefly, the standards (a dilution of synthetic Aβ1-40 and […], Bachem) were prepared in 1.5 ml Eppendorf tube in Ultraculture, with final concentrations ranging from 10000 to 0.3 pg/ml. The samples and standards were co-incubated with HRPO-labelled N-terminal antibody for Aβ42 detection and with the biotinylated mid-domain antibody 4G8 for Aβtotal detection. 50 μl of conjugate/sample or conjugate/standards mixtures were then added to the antibody-coated plate (the capture antibodies selectively recognize the C-terminal end of Aβ42, antibody JRF/cAβ42/26, for Aβ42 detection and the N-terminus of Aβ, antibody JRF/rAβ/2, for Aβtotal detection). The plate was allowed to incubate overnight at 4° C. in order to allow formation of the antibody-amyloid complex. Following this incubation and subsequent wash steps the ELISA for Aβ42 quantification was finished by addition of Quanta Blu fluorogenic peroxidase substrate according to the manufacturer's instructions (Pierce Corp., Rockford, Il.). A reading was performed after 10 to 15 min (excitation 320 nm/emission 420 nm).
In this model at least 20% Aβ42 lowering compared to untreated animals would be advantageous.

brain levels of total Aβ = test: In vivo efficacy: brain Aβtotal lowering (ELISA); set-up: species or system mouse; conditions: 30 mg/kg p.o., 4 h. after administration
Text: as §4, §5, §6, §7, §8
For Aβtotal detection, a Streptavidine-Peroxidase-Conjugate was added, followed 60 min later by an additional wash step and addition of Quanta Blu fluorogenic peroxidase substrate according to the manufacturer's instructions (Pierce Corp., Rockford, Il.). A reading was performed after 10 to 15 min (excitation 320 nm/emission 420 nm).

[4] = target: recombinant BACE1 protein (Homo sapiens, UniProt P56817); test: Biochemical FRET based assay; conditions: recombinant BACE1 1 μg/ml, 120 min, pH 5.0; for IC50: read-out: Biochemical FRET based assay pIC50 (converted)
Text: Biochemical FRET Based Assay
This assay is a Fluorescence Resonance Energy Transfer Assay (FRET) based assay. The substrate for this assay is an APP derived 13 amino acids peptide that contains the ‘Swedish’ Lys-Met/Asn-Leu mutation of the amyloid precursor protein (APP) β-secretase cleavage site. This substrate also contains two fluorophores: (7-methoxycoumarin-4-yl)acetic acid (Mca) is a fluorescent donor with excitation wavelength at 320 nm and emission at 405 nm and 2,4-Dinitrophenyl (Dnp) is a proprietary quencher acceptor. […] Upon cleavage by BACE1, the fluorophore Mca is separated from the quenching group Dnp, restoring the full fluorescence yield of the donor. The increase in fluorescence is linearly related to the rate of proteolysis (Koike H et al. J. Biochem. 1999, 126, 235-242). Briefly in a 384-well format recombinant BACE1 protein in a final concentration of 1 μg/ml is incubated for 120 min at room temperature with 10 μm substrate in incubation buffer (40 mM Citrate buffer pH 5.0, 0.04% PEG, 4% DMSO) in the absence or presence of compound. Next the amount of proteolysis is directly measured by fluorescence measurement at T=0 and T=120 (excitation at 320 nm and emission at 405 nm).

[5] = SKNBE2 cells expressing hAPP695, 18 hours incubation

recombinant BACE1 protein, sequence (P56817 46-501): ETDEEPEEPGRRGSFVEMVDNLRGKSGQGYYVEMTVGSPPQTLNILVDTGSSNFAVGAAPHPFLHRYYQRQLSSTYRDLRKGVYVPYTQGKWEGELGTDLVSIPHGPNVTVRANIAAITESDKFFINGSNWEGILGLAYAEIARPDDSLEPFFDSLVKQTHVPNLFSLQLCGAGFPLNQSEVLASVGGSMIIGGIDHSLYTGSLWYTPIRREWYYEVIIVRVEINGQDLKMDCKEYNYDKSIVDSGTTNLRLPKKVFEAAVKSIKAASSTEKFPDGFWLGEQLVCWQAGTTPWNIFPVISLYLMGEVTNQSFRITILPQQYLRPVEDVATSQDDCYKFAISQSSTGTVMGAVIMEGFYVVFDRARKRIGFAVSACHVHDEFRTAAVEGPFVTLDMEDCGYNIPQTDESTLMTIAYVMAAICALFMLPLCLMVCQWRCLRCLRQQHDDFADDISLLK

Row | SMILES | Cellular αlisa assay in SKNBE2 cells Aβ42 pIC50 [1, 5] | Cellular αlisa assay in SKNBE2 cells Aβtotal pIC50 [2, 5] | IC50 [4] | Biochemical FRET based assay pIC50 [4] | further results
1 | CC1(c2cccc(NC(=O)c3ccc(C#N)cn3)c2)Cn2nccc2C(N)=N1 (single isomer, unassigned) [Compound 7, (R*)-5-cyano-pyridine-2-carboxylic acid [3-(4-amino-6-methyl-6,7-dihydro-pyrazolo[1,5-a]pyrazin-6-yl)-phenyl]-amide] | 8.66 | 8.69 |  |  | Aβ42 (% Ctrl)_Mean [3]: 88 % Ctrl; Aβtotal (% Ctrl)_Mean (brain levels of total Aβ): 101 % Ctrl
2 | CC1(c2cccc(NC(=O)c3ncc(Cl)cc3Cl)c2)Cn2nc(C(F)(F)F)cc2C(N)=N1 (single isomer, unassigned) [Compound 11, (R*)-3,5-dichloro-pyridine-2-carboxylic acid [3-(4-amino-6-methyl-2-trifluoromethyl-6,7-dihydro-pyrazolo[1,5-a]pyrazin-6-yl)-phenyl]-amide] | 7.94 | 8.01 | 28.2 nM |  | Aβ42 (% Ctrl)_Mean [3]: 89 % Ctrl; Aβtotal (% Ctrl)_Mean (brain levels of total Aβ): 84 % Ctrl
3 | NC1=NC(c2cc(NC(=O)c3ccc(F)cn3)ccc2F)(C(F)F)Cn2nccc21 (single isomer, unassigned) [Compound 22, (R*)-5-fluoro-pyridine-2-carboxylic acid [3-(4-amino-6-difluoromethyl-6,7-dihydro-pyrazolo[1,5-a]pyrazin-6-yl)-4-fluoro-phenyl]-amide] | 7.17 | 7.21 | 25.7 nM |  | 
4 | COc1cnc(C(=O)Nc2cccc(C3(C)Cn4nc(C(F)(F)F)cc4C(N)=N3)c2)cn1 (single isomer, unassigned) [Compound 31] | 5.58 | 5.61 |  | 4.97 | 
5 | C[C@@]1(c2cccc(-c3cncc(Cl)c3)c2)Cn2nccc2C(N)=N1 [Compound 1, (R)-6-[3-(5-chloro-pyridin-3-yl)-phenyl]-6-methyl-6,7-dihydro-pyrazolo[1,5-a]pyrazin-4-ylamine trifluoroacetate salt] |  |  | 525 nM |  | IC50 [1]: 93.3 nM; IC50 [2]: 100 nM
6 | COc1cnc(C(=O)Nc2ccc(F)c([C@]3(C)Cn4ncc(F)c4C(N)=N3)c2)cn1 [Compound 13, (R)-5-methoxy-pyrazine-2-carboxylic acid [3-(4-amino-3-fluoro-6-methyl-6,7-dihydro-pyrazolo[1,5-a]pyrazin-6-yl)-4-fluoro-phenyl]-amide] |  |  | 72.4 nM |  | IC50 [1, 5]: 6.76 nM; IC50 [2, 5]: 5.5 nM
7 | C[C@@]1(c2cc(NC(=O)c3ccc(C#N)cn3)ccc2F)Cn2nc(C#N)cc2C(N)=N1 [Compound 26, (R)-5-cyano-pyridine-2-carboxylic acid [3-(4-amino-2-cyano-6-methyl-6,7-dihydro-pyrazolo[1,5-a]pyrazin-6-yl)-4-fluoro-phenyl]-amide] |  |  | 49 nM |  | IC50 [1, 5]: 1.48 nM; IC50 [2, 5]: 1.45 nM
8 | Cc1nc(C(=O)Nc2ccc(F)c(C3(C)Cn4ncc(F)c4C(N)=N3)c2)co1 (stereo not drawn) [Compound 34] | 7.83 | 7.78 |  | 7.23 | 
9 | Cc1nc(C(=O)Nc2ccc(F)c(C3(C)Cn4ncc(F)c4C(N)=N3)c2)c(C(F)(F)F)o1 (stereo not drawn) [Compound 35] | 7.33 | 7.30 |  | 6.91 | 
10 | Cc1nc(C(=O)Nc2ccc(F)c(C3(C)Cn4ncc(F)c4C(N)=N3)c2)c(C)o1 (stereo not drawn) [Compound 36] | 7.56 | 7.53 |  | 7.04 | 
11 | COc1cnc(C(=O)Nc2ccc(F)c(C3(C)Cn4ncc(Cl)c4C(N)=N3)c2)cn1 (stereo not drawn) [Compound 37] | 6.03 | 6.07 |  | 5.86 | 
12 | CC1(c2cc(NC(=O)c3ccc(F)cn3)ccc2F)Cn2ncc(Cl)c2C(N)=N1 (stereo not drawn) [Compound 38] | 6.16 | 6.22 |  | 6.03 | 
13 | CC1(c2cc(NC(=O)c3ccc(Cl)cn3)ccc2F)Cn2nc(C(F)F)cc2C(N)=N1 (stereo not drawn) [Compound 39] | 8.61 | 8.59 |  | 7.39 | 
14 | CC1(c2cc(NC(=O)c3ccn(C(F)F)n3)ccc2F)Cn2nc(C(F)F)cc2C(N)=N1 (stereo not drawn) [Compound 40] | 8.42 | 8.37 |  | 7.28 | 
15 | Cc1nn2c(c1F)C(N)=NC(C)(c1cc(NC(=O)c3ccn(C(F)F)n3)ccc1F)C2 (stereo not drawn) [Compound 42] | 8.02 | 7.99 |  | 7.12 | 
16 | Cc1nc(C(=O)Nc2ccc(F)c(C3(C)Cn4nc(C#N)cc4C(N)=N3)c2)co1 (stereo not drawn) [Compound 43] | 8.72 | 8.70 |  | 7.53 | 
